The text below walks through data of PubChem BioAssay AID651563 (Sanford-Burnham Center for Chemical Genomics, 2012).

pIC50: −log10 of the molar value. Calls of active or inactive are those of the source.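 The calls were made as follows: active = compounds whose IC50 is 20 micromolar or lower, counted as confirmed SKN-1 reporter blockers; inactive = the rest.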

This test relates to C. elegans VP596 Pgst-4::GFP/RFP ratio, acrylamide, 24 h. Kind of test: inhibition of acrylamide-induced Pgst-4::GFP reporter, dose response, SKN-1 inhibitor project, whole organism, GFP/RFP fluorescence ratio, set 2, strain VP596 (AID 651563).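 Also: red signal is driven by the dop-3 promoter and serves as the normalizer.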
Usually IC50 stands for the midpoint of a concentration-inhibition curve. Take `CCCCOC(=O)Nc1ccc(N2CCCCC2)cc1`: the IC50 is 38.8 µM (inactive).

With `c1ccc(-c2csc(-c3cccnc3)n2)cc1`, the IC50 was > 100 µM (inactive).

The term pIC50 denotes the negative decadic logarithm of the IC50, by convention in mol/L. In the case of `C(=C\c1nnc(-c2cccs2)o1)/c1ccccc1`, the pIC50 is 4.80.

As to `Fc1ccccc1OCCSc1nc2ccccc2o1`, the IC50 is 60.7 µM (inactive).

As to `CCc1ccc(C(=O)Nc2ccc3nc(C)ccc3c2)cc1`, the pIC50 is 4.85.

Regarding `c1ccc(-c2csc(-c3ccncc3)n2)cc1`, the pIC50 is 4.90.

For `Fc1ccc(OCc2nc(-c3cccs3)no2)cc1`, the IC50 is 31.5 µM (inactive).

`Clc1ccc(-c2nc3cc(CN4CCCCC4)ccc3o2)cc1`: the IC50 is 87.7 µM (inactive).

Regarding `Brc1ccc2nc(N3CCCC3)sc2c1`, the IC50 is 25.8 µM (inactive).

For the molecule `Cc1oc(-c2ccc(-c3ccccc3)cc2)nc1CN(C)C1CCOC1` (stereo not drawn), the IC50 was 20.6 µM (inactive).

On to `COc1cc(CNC(C)c2ccccc2)cc(Br)c1OCc1ccc(F)cc1` (stereo not drawn), for which the pIC50 is 5.04.

With `Cc1cc(-c2nc3cc(F)ccc3s2)ccc1N`, the pIC50 was 4.74.

For `COc1cc(SC)ccc1C(=O)Nc1nccs1`, the IC50 was > 100 µM (inactive).

Regarding `Clc1ccc(CSc2ncn(-c3ccccc3)n2)cc1`, the pIC50 was 4.95.

For `Cc1ccc(CSc2nnc(-c3ccco3)o2)cc1`, the IC50 is 23.8 µM (inactive).

Consider `O=C(NCc1ccncc1)c1ccc(-c2ccc(F)c(F)c2)c2ccoc12`, for which the IC50 was 29.8 µM (inactive).

Take `Cc1ccc2nc(-c3ccc(NC(=S)NC4CC(C)(C)NC(C)(C)C4)cc3)sc2c1`: the pIC50 was 4.80.

On to `O=C(/C=C/c1cccs1)c1ccc(Br)cc1`, for which the IC50 was 20.8 µM (inactive).

For the molecule `CSc1cccc(NC(=O)c2cccc3cccnc23)c1`, the pIC50 was 4.90.

On to `Fc1ccc(Cn2nnc(-c3ccc(CN4CCOCC4)cc3)n2)cc1`, for which the pIC50 is 4.70.

In the case of `CCCCOC(=O)Nc1ccc(C(C)C)cc1`, the IC50 is 76.2 µM (inactive).

As for `Clc1ccc(OCCCc2nc(-c3ccncc3)no2)c(Cl)c1`, the IC50 is 29.5 µM (inactive).

For the molecule `O=C(c1ccc(Cl)cc1)c1cc([N+](=O)[O-])ccc1N1CCOCC1`, the IC50 was > 100 µM (inactive).

For the molecule `O=C(C=Cc1cccs1)c1ccc(Cl)s1`, the pIC50 is 4.75.

`O=[N+]([O-])c1ccc2nc(N3CCCC3)sc2c1`: the IC50 is > 100 µM (inactive).

Consider `CCN(CC)c1ccc(/C=C2\C(=O)c3ccc(C(=O)O)cc3C2=O)cc1`, for which the pIC50 is 4.91.

With `CCOC(=O)c1c(-c2ccc(-c3ccccc3)cc2)csc1NC(=O)CNCCN(C)C`, the pIC50 is 4.96.

In the case of `CCc1nc2c(OCc3ccc(C(F)(F)F)cc3)cccn2c1N(C)C(=O)c1ccncc1`, the pIC50 is 5.45.

In the case of `Clc1ccc(Nc2nc(-c3cccs3)cs2)nc1`, the pIC50 was 4.94.

Turning to `C(=C\c1ccc2ccccc2n1)/c1ccccc1`, the IC50 is > 100 µM (inactive).

Take `COc1cc(CNC2CCCC2)cc(Cl)c1OCc1ccc(F)cc1`: the negative-log IC50 (pIC50) is 4.93.

Regarding `O=C1/C(=C/c2cccs2)CCc2ccccc21`, the IC50 is 34.3 µM (inactive).

On to `Fc1ccc(COc2ccc(-c3nnco3)cc2)c(Cl)c1`, for which the pIC50 was 5.19.

For the molecule `Fc1ccc(-c2csc(Nc3ccccn3)n2)cc1`, the pIC50 is 5.15.

On to `Brc1ccc(-c2nnc(-c3cccnc3)o2)cc1`, for which the IC50 is > 100 µM (inactive).

As to `O=C(/C=C/Nc1ccc(Br)cc1F)c1ccco1`, the pIC50 is 5.66.

For the molecule `CCn1nccc1C(=O)Nc1ccc(Cl)c(Cl)c1`, the IC50 is 87.8 µM (inactive).

`O=C(/C=C/c1ccccc1)Nc1ccc(CN2CCOCC2)cc1`: the pIC50 was 4.71.

For the molecule `Fc1ccc(-c2cnc(-c3cccs3)o2)cc1`, the IC50 is 27.5 µM (inactive).

On to `Fc1ccc(CSc2ncnc3ccccc23)cc1`, for which the IC50 is 24.2 µM (inactive).

As to `CC(=O)NS(=O)(=O)c1ccc(Nc2ccc([N+](=O)[O-])c3nonc23)cc1`, the IC50 is 57.9 µM (inactive).

Consider `Fc1ccc(-n2nnc(-c3nccs3)n2)cc1`, for which the IC50 was 24.4 µM (inactive).

Take `O=C(C=Cc1ccccc1)CC(c1ccccc1)N1CCOCC1` (stereo not drawn): the pIC50 is 4.99.

In the case of `Clc1ccc(-c2nc(-c3ccncc3)no2)c(Cl)c1`, the IC50 is > 100 µM (inactive).

Turning to `O=C(Nc1nc(-c2ccccc2)cs1)c1cccs1`, the IC50 is 21.9 µM (inactive).

Turning to `O=C(Nc1ccc(Cl)c(Cl)c1)c1ccco1`, the IC50 was 45.4 µM (inactive).

Take `Cc1nc2ccccc2cc1OCc1ccc(F)cc1`: the IC50 was 24 µM (inactive).

In the case of `CCOC(=O)Nc1nc(-c2ccc(F)cc2F)cs1`, the pIC50 was 4.74.

As for `O=C1c2cc(Br)ccc2OC2C=CC=CC12` (stereo not drawn), the IC50 was > 100 µM (inactive).

Consider `O=C(C=Cc1ccco1)c1ccc2ccccc2c1`, for which the IC50 was 31.7 µM (inactive).

With `CN1CCN(c2ccc(NC(=O)c3ccc(Oc4ccccc4)cc3)cc2)CC1`, the pIC50 was 4.90.

Consider `Brc1ccc(-c2nnc(-c3ccco3)o2)cc1`, for which the pIC50 is 4.97.

As for `O=C(/C=C/c1ccco1)Nc1nc(-c2ccccc2)cs1`, the IC50 was 42.6 µM (inactive).

On to `Clc1ccc(-c2nnc(-c3ccco3)o2)cc1`, for which the pIC50 was 4.80.

In the case of `Fc1ccccc1CSc1ccc(-c2ccco2)nn1`, the IC50 was > 100 µM (inactive).

Take `CCOc1cc(CNC2CCCC2)cc(Cl)c1OCc1ccc(F)cc1`: the pIC50 is 5.55.

As to `O=C(/C=C/Nc1ccc(F)c(F)c1)c1cccs1`, the pIC50 was 4.94.

On to `O=C1/C(=C/c2ccccc2)CCCc2ccccc21`, for which the IC50 is 31.6 µM (inactive).

Regarding `Fc1ccc(-c2csc(-c3ccncc3)n2)cc1`, the pIC50 is 5.23.

As for `O=C(/C=C/Nc1ccc(F)cc1F)c1ccco1`, the IC50 was 22.7 µM (inactive).

Turning to `Clc1ccc(-n2nnc(-c3cccnc3)n2)cc1Cl`, the IC50 is > 100 µM (inactive).

Regarding `Brc1ccc(CSc2nnc(-c3ccco3)o2)cc1`, the negative-log IC50 (pIC50) was 5.14.

As for `Clc1ccsc1-c1ccc2ccccc2n1`, the IC50 is 20.3 µM (inactive).

Take `c1ccc(-n2nnc(-c3nccs3)n2)cc1`: the IC50 is > 100 µM (inactive).

`COc1ccc2c(c1OC)C(=O)OC2Nc1nc(-c2ccc(-c3ccccc3)cc2)cs1` (stereo not drawn): the IC50 is 33.8 µM (inactive).

With `CCSc1nnc(-c2ccc(Cl)cc2Cl)o1`, the IC50 is 58.5 µM (inactive).

With `O=C(Nc1nc(-c2ccc(Cl)s2)cs1)c1ccco1`, the pIC50 was 4.81.

With `CN(C)CC(O)c1ccc(C=Cc2ccc(Cl)cc2)cc1` (stereo not drawn), the pIC50 is 4.74.

As for `CC/C(=C\c1ccc(Cl)cc1)c1ccncc1`, the IC50 is 28.2 µM (inactive).

Consider `Fc1ccc(-c2nc3ccc(Cl)cn3c2Cc2ccsc2)cc1`, for which the IC50 was > 100 µM (inactive).

For `Fc1ccc(Nc2cccc3nccnc23)cc1`, the IC50 was 47.2 µM (inactive).

In the case of `N/C(=N\OC(=O)c1cc(Br)ccc1Cl)c1ccccn1`, the IC50 is 53.5 µM (inactive).

In the case of `O=C(Nc1nccs1)c1ccc2ccccc2n1`, the pIC50 is 4.80.

As to `Clc1ccc(OCc2cnc(Cl)s2)cc1`, the IC50 was 23.1 µM (inactive).

As to `CSc1ccc(-c2cc(=O)c3ccccc3o2)cc1`, the pIC50 is 4.76.

For `Clc1ccc(-c2nnc(-c3ccccc3)o2)c(Cl)c1`, the pIC50 is 5.84.

Regarding `CCN(CC)Cc1ccc(NC(=O)c2sc3cc(Cl)ccc3c2Cl)cc1`, the pIC50 was 4.86.

As for `O=[N+]([O-])c1ccc(OCc2cnc(Cl)s2)cc1`, the pIC50 is 4.86.

Regarding `Cn1c(=O)c2c(-c3ccccc3)n(-c3ccc(N)cc3)cc2n(C)c1=O`, the IC50 was 23.5 µM (inactive).

Consider `Nc1ccc2c(Cl)cc(Cl)cc2c1`, for which the IC50 is 28.5 µM (inactive).

Take `O=C(Nc1ccc(-c2nnc(-c3ccccc3)o2)cc1)c1ccc(Br)o1`: the IC50 was > 100 µM (inactive).

Turning to `Brc1ccc(-c2nc(-c3ccccc3)no2)o1`, the pIC50 was 5.60.

Consider `c1ccc(-c2nc3cc4ccccc4cc3[nH]2)nc1`, for which the pIC50 is 4.79.
